# Measurements: US8192962B2, “Processes for detecting toxic substances” (Daikin Industries, Ltd., priority 2001, dated 2012)
# System: DNA repair protein genes
# Assay: DNA chip mRNA expression in yeast, DNA repair protein genes (Table 3)
# Format: cell-based, Saccharomyces cerevisiae S288C
# Details: incubated two hours, concentrations as in the 1st table
# Summary of the method: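 Value is the scanned fluorescence intensity ratio of exposed versus chemical-free cells. Log-phase S288C yeast in YPD at 25° C. received one toxic substance for two hours, dosed to slow growth without killing; Cy3/Cy5-labeled cDNA from oligo-dT-purified mRNA was hybridized to a whole-genome chip at 65° C.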
compound,measurement,setting,value
"[Cl][Hg][Cl] [(3), HgCl2]",The level of expressed mRNA in the presence of chemical substance/The level of expressed mRNA in the absence of chemical substance,yeast gene YAL015C,1.7
same,The level of expressed mRNA in the presence of chemical substance/The level of expressed mRNA in the absence of chemical substance,yeast gene YAR007C,0.8
same,The level of expressed mRNA in the presence of chemical substance/The level of expressed mRNA in the absence of chemical substance,yeast gene YBL019W,0.7
same,The level of expressed mRNA in the presence of chemical substance/The level of expressed mRNA in the absence of chemical substance,yeast gene YBR073W,0.9
same,The level of expressed mRNA in the presence of chemical substance/The level of expressed mRNA in the absence of chemical substance,yeast gene YBR272C,1.3
same,The level of expressed mRNA in the presence of chemical substance/The level of expressed mRNA in the absence of chemical substance,yeast gene YCR014C,0.8
same,The level of expressed mRNA in the presence of chemical substance/The level of expressed mRNA in the absence of chemical substance,yeast gene YDL017W,1.2
same,The level of expressed mRNA in the presence of chemical substance/The level of expressed mRNA in the absence of chemical substance,yeast gene YDL059C,1.4
same,The level of expressed mRNA in the presence of chemical substance/The level of expressed mRNA in the absence of chemical substance,yeast gene YDL200C,1.2
same,The level of expressed mRNA in the presence of chemical substance/The level of expressed mRNA in the absence of chemical substance,yeast gene YDR054C,0.7
same,The level of expressed mRNA in the presence of chemical substance/The level of expressed mRNA in the absence of chemical substance,yeast gene YDR369C,2.4
same,The level of expressed mRNA in the presence of chemical substance/The level of expressed mRNA in the absence of chemical substance,yeast gene YEL019C,0.3
same,The level of expressed mRNA in the presence of chemical substance/The level of expressed mRNA in the absence of chemical substance,yeast gene YEL037C,0.9
same,The level of expressed mRNA in the presence of chemical substance/The level of expressed mRNA in the absence of chemical substance,yeast gene YER162C,1.0
same,The level of expressed mRNA in the presence of chemical substance/The level of expressed mRNA in the absence of chemical substance,yeast gene YFL014W,5.7
same,The level of expressed mRNA in the presence of chemical substance/The level of expressed mRNA in the absence of chemical substance,yeast gene YGL058W,0.6
same,The level of expressed mRNA in the presence of chemical substance/The level of expressed mRNA in the absence of chemical substance,yeast gene YGL091C,1.0
same,The level of expressed mRNA in the presence of chemical substance/The level of expressed mRNA in the absence of chemical substance,yeast gene YGL127C,1.3
same,The level of expressed mRNA in the presence of chemical substance/The level of expressed mRNA in the absence of chemical substance,yeast gene YGL163C,0.6
same,The level of expressed mRNA in the presence of chemical substance/The level of expressed mRNA in the absence of chemical substance,yeast gene YGL249W,0.5
same,The level of expressed mRNA in the presence of chemical substance/The level of expressed mRNA in the absence of chemical substance,yeast gene YGR180C,1.9
same,The level of expressed mRNA in the presence of chemical substance/The level of expressed mRNA in the absence of chemical substance,yeast gene YGR231C,0.7
same,The level of expressed mRNA in the presence of chemical substance/The level of expressed mRNA in the absence of chemical substance,yeast gene YGR258C,0.7
same,The level of expressed mRNA in the presence of chemical substance/The level of expressed mRNA in the absence of chemical substance,yeast gene YHR164C,0.9
same,The level of expressed mRNA in the presence of chemical substance/The level of expressed mRNA in the absence of chemical substance,yeast gene YIL036W,1.3
same,The level of expressed mRNA in the presence of chemical substance/The level of expressed mRNA in the absence of chemical substance,yeast gene YIL072W,1.1
same,The level of expressed mRNA in the presence of chemical substance/The level of expressed mRNA in the absence of chemical substance,yeast gene YIL143C,1.1
same,The level of expressed mRNA in the presence of chemical substance/The level of expressed mRNA in the absence of chemical substance,yeast gene YIL153W,1.3
same,The level of expressed mRNA in the presence of chemical substance/The level of expressed mRNA in the absence of chemical substance,yeast gene YIR002C,0.5
same,The level of expressed mRNA in the presence of chemical substance/The level of expressed mRNA in the absence of chemical substance,yeast gene YJL026W,2.9
same,The level of expressed mRNA in the presence of chemical substance/The level of expressed mRNA in the absence of chemical substance,yeast gene YJR046W,1.2
same,The level of expressed mRNA in the presence of chemical substance/The level of expressed mRNA in the absence of chemical substance,yeast gene YJR052W,1.1
same,The level of expressed mRNA in the presence of chemical substance/The level of expressed mRNA in the absence of chemical substance,yeast gene YKL145W,1.2
same,The level of expressed mRNA in the presence of chemical substance/The level of expressed mRNA in the absence of chemical substance,yeast gene YLR103C,1.1
same,The level of expressed mRNA in the presence of chemical substance/The level of expressed mRNA in the absence of chemical substance,yeast gene YLR233C,2.0
same,The level of expressed mRNA in the presence of chemical substance/The level of expressed mRNA in the absence of chemical substance,yeast gene YLR288C,1.6
same,The level of expressed mRNA in the presence of chemical substance/The level of expressed mRNA in the absence of chemical substance,yeast gene YML032C,1.1
same,The level of expressed mRNA in the presence of chemical substance/The level of expressed mRNA in the absence of chemical substance,yeast gene YML058W,5.8
same,The level of expressed mRNA in the presence of chemical substance/The level of expressed mRNA in the absence of chemical substance,yeast gene YMR035W,1.5
same,The level of expressed mRNA in the presence of chemical substance/The level of expressed mRNA in the absence of chemical substance,yeast gene YMR072W,1.4
same,The level of expressed mRNA in the presence of chemical substance/The level of expressed mRNA in the absence of chemical substance,yeast gene YMR096W,1.1
same,The level of expressed mRNA in the presence of chemical substance/The level of expressed mRNA in the absence of chemical substance,yeast gene YMR284W,0.5
same,The level of expressed mRNA in the presence of chemical substance/The level of expressed mRNA in the absence of chemical substance,yeast gene YNL213C,0.9
same,The level of expressed mRNA in the presence of chemical substance/The level of expressed mRNA in the absence of chemical substance,yeast gene YNL250W,0.8
same,The level of expressed mRNA in the presence of chemical substance/The level of expressed mRNA in the absence of chemical substance,yeast gene YNL261W,0.6
same,The level of expressed mRNA in the presence of chemical substance/The level of expressed mRNA in the absence of chemical substance,yeast gene YNL312W,1.6
same,The level of expressed mRNA in the presence of chemical substance/The level of expressed mRNA in the absence of chemical substance,yeast gene YOL043C,0.8
same,The level of expressed mRNA in the presence of chemical substance/The level of expressed mRNA in the absence of chemical substance,yeast gene YOR005C,1.0
same,The level of expressed mRNA in the presence of chemical substance/The level of expressed mRNA in the absence of chemical substance,yeast gene YOR386W,1.3
same,The level of expressed mRNA in the presence of chemical substance/The level of expressed mRNA in the absence of chemical substance,yeast gene YPL022W,0.7
same,The level of expressed mRNA in the presence of chemical substance/The level of expressed mRNA in the absence of chemical substance,yeast gene YPL164C,1.1
same,The level of expressed mRNA in the presence of chemical substance/The level of expressed mRNA in the absence of chemical substance,yeast gene YPL194W,0.4
same,The level of expressed mRNA in the presence of chemical substance/The level of expressed mRNA in the absence of chemical substance,yeast gene YPR025C,0.6
